Reference: patent publication US20240150362A1, “Substituted Pyrrolotriazines” (Molecure S.A., priority 2022, published 2024)
pIC50: −log10 of the molar value. Counter-ions that a name gives are not always drawn.

Each compound was assayed against T1, full-length USP7 (Homo sapiens, UniProt Q93009) (assay: Enzymatic assay to determine IC50 of USP7 inhibitors (Ubiquitin-Rhodamine 110 cleavage)). Conditions: full-length USP7 0.5-1.0 nM, 0.5 μM Ubiquitin-Rhodamine 110, 30-60 min at 25° C.
T1 construct: A 45 μl reaction volume containing full-length USP7 (0.5-1.0 nM)
Assay type: biochemical
Method: Enzymatic Assay to Determine IC50 of USP7 Inhibitors
The IC50 is the concentration of an inhibitor where the measured enzyme activity is reduced by half. In the case of USP7 deubiquitinase, the IC50 of an USP7 inhibitor is the molar concentration of the compound that inhibits 50% of the activity observed in a USP7-mediated-ubiquitin-rhodamine cleavage assay. For the inhibitors disclosed herein, their potency was measured using the following method.
A 45 μl reaction volume containing full-length USP7 (0.5-1.0 nM) in 50 mM HEPES pH 7.5, 150 mM NaCl, 2 mM DTT, 1 mg/ml BSA and 0.05% Tween20 was assembled in wells of 96 well half area black flat bottom plates. Test compounds were first dissolved to 30 mM stocks in DMSO and subsequently introduced to enzyme 15 min after USP7 incubation with DTT at room temperature. The enzymatic reaction was started by adding 0.5 μM Ubiquitin-Rhodamine 110 (final concentration) and allowed to proceed for 30-60 min at 25° C., 250 RPM shaking before Rhodamine fluorescence (485 nm excitation/535 nm emission) was measured using Tecan Spark M10 plate reader. The IC50 values were determined by data fitting to variable slope model four-parameter dose-response curve using GraphPad 7.05.

T1 sequence (Q93009 whole entry): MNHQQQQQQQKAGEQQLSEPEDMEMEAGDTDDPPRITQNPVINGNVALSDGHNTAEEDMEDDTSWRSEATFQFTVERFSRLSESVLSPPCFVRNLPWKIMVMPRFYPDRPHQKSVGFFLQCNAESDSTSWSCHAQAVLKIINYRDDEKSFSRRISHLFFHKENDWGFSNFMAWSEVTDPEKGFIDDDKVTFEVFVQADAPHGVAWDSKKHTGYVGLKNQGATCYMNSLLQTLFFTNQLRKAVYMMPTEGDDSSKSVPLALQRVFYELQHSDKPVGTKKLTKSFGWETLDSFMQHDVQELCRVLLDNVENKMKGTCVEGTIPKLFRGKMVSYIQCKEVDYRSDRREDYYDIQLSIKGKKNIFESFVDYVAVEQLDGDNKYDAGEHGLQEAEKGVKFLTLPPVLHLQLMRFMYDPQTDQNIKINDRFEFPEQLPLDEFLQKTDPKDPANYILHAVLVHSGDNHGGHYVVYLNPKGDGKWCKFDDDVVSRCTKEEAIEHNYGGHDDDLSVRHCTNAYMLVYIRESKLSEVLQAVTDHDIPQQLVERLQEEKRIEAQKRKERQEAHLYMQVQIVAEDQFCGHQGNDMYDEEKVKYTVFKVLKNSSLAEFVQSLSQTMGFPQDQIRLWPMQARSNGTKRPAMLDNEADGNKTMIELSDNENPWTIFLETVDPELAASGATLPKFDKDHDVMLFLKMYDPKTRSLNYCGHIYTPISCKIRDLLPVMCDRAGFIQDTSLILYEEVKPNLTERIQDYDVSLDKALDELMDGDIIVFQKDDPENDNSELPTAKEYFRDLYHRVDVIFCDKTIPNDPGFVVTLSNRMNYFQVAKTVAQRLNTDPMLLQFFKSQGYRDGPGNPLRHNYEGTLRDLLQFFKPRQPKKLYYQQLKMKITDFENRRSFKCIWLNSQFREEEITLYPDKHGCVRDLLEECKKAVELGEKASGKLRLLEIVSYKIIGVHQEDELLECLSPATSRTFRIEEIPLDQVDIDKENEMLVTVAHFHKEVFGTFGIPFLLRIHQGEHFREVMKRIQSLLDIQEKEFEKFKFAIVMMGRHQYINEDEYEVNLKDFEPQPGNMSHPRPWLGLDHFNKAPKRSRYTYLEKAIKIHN

pIC50 | SMILES
> 6.30 | Cc1cc(Cl)cc(-c2ncnn3cc(Cn4c(=O)ccn(C)c4=O)cc23)c1CC1CNCCO1 (racemic) [Example 60, 3-((4-(5-chloro-3-methyl-2-(morpholin-2-ylmethyl)phenyl)pyrrolo[2,1-f][1,2,4]triazin-6-yl)methyl)-1-methylpyrimidine-2,4(1H,3H)-dione hydrochloride]
> 6.30 | Cc1cc(Cl)cc(-c2ncnn3cc(Cn4c(=O)ccn(CC(F)(F)F)c4=O)cc23)c1CC1CNCCO1 (racemic) [Example 68, 3-((4-(5-chloro-3-methyl-2-(morpholin-2-ylmethyl)phenyl)pyrrolo[2,1-f][1,2,4]triazin-6-yl)methyl)-1-(2,2,2-trifluoroethyl)pyrimidine-2,4(1H,3H)-dione hydrochloride]
> 6.30 | CC1(C)C2C(=O)N(Cc3cc4c(-c5cc(Cl)cc6ccn(C[C@@H]7CNCCO7)c56)ncnn4c3)C(=O)C21 (single isomer, unassigned) [Example 30, dihydrochloride]
> 6.30 | Cc1cc(Cl)cc(-c2ncnn3cc(Cn4c(=O)ccn(C)c4=O)cc23)c1C[C@@H]1CNCCO1 (single isomer, unassigned) [Example 82, hydrochloride]
> 6.30 | Cc1cc(Cl)cc(-c2ncnn3cc(Cn4c(=O)ccn(CC(F)(F)F)c4=O)cc23)c1C[C@@H]1CNCCO1 (single isomer, unassigned) [Example 83, hydrochloride]
> 6.30 | Cc1cc(Cl)cc(-c2ncnn3cc(Cn4c(=O)ccn(C(C)C)c4=O)cc23)c1C[C@@H]1CNCCO1 (single isomer, unassigned) [Example 89, hydrochloride]
> 6.30 | CCn1ccc(=O)n(Cc2cc3c(-c4cc(Cl)cc(C)c4C[C@@H]4CNCCO4)ncnn3c2)c1=O (single isomer, unassigned) [Example 104, hydrochloride]
> 6.30 | [2H]C([2H])([2H])n1ccc(=O)n(Cc2cc3c(-c4cc(Cl)cc(C)c4C[C@@H]4CNCCO4)ncnn3c2)c1=O (single isomer, unassigned) [Example 105, hydrochloride]
> 6.30 | Cc1cc(Cl)cc(-c2ncnn3cc(Cn4c(=O)ccn(C5CC5)c4=O)cc23)c1CC1CNC[C@H](C)O1 (single isomer, unassigned) [Example 106, hydrochloride]
> 6.30 | Cc1cc(Cl)cc(-c2ncnn3cc(Cn4c(=O)ccn(C5CC5)c4=O)cc23)c1C[C@@H]1CNCCO1 (single isomer, unassigned) [Example 107, hydrochloride]
> 6.30 | Cc1cc(Cl)cc(-c2ncnn3cc(Cn4c(=O)ccn(C)c4=O)cc23)c1CC1CN[C@@H](C)CO1 (single isomer, unassigned) [Example 110, hydrochloride]
> 6.30 | CCn1ccc(=O)n(Cc2cc3c(-c4cc(Cl)cc(C)c4CC4CNC[C@H](C)O4)ncnn3c2)c1=O (single isomer, unassigned) [Example 114, hydrochloride]

Second part, the compound before the results:

SMILES | pIC50
Cc1cc(Cl)cc(-c2ncnn3cc(CN4C(=O)C5C(C4=O)C5(C)C)cc23)c1CC1CNCC2(CC2)O1 (racemic) [Example 46, 3-((4-(2-((4-oxa-7-azaspiro[2.5]octan-5-yl)methyl)-5-chloro-3-methylphenyl)pyrrolo[2,1-f][1,2,4]triazin-6-yl)methyl)-6,6-dimethyl-3-azabicyclo[3.1.0]hexane-2,4-dione hydrochloride] | > 6.30
Cc1cc(Cl)cc(-c2ncnn3cc(CN4C(=O)C5C(C4=O)C5(C)C)cc23)c1CC1CNCC(C)(C)O1 (racemic) [Example 50, 3-((4-(5-chloro-2-((6,6-dimethylmorpholin-2-yl)methyl)-3-methylphenyl)pyrrolo[2,1-f][1,2,4]triazin-6-yl)methyl)-6,6-dimethyl-3-azabicyclo[3.1.0]hexane-2,4-dione hydrochloride] | > 6.30
CC1(C)C2C(=O)N(Cc3cc4c(-c5cc(Cl)cc6c5N(C5CCNC5)CCC6)ncnn4c3)C(=O)C21 (racemic) [Example 51, 3-((4-(6-chloro-1-(pyrrolidin-3-yl)-1,2,3,4-tetrahydroquinolin-8-yl)pyrrolo[2,1-f][1,2,4]triazin-6-yl)methyl)-6,6-dimethyl-3-azabicyclo[3.1.0]hexane-2,4-dione hydrochloride] | > 6.30
Cc1cc(Cl)cc(-c2ncnn3cc(CN4C(=O)C5C(C4=O)C5(C)C)cc23)c1CC1CN[C@H](C)CO1 (single isomer, unassigned) [Example 41, hydrochloride] | > 6.30
CC1(C)C2C(=O)N(Cc3cc4c(-c5cc(Cl)cc6c5N(C5CCNC5)CCC6)ncnn4c3)C(=O)C21 (single isomer, unassigned) [Example 66, 3-((4-(6-chloro-1-(pyrrolidin-3-yl)-1,2,3,4-tetrahydroquinolin-8-yl)pyrrolo[2,1-f][1,2,4]triazin-6-yl)methyl)-6,6-dimethyl-3-azabicyclo[3.1.0]hexane-2,4-dione hydrochloride] | > 6.30
CC1(C)C2C(=O)N(Cc3cc4c(-c5cc(Cl)cc6c5N(C5CCNC5)CCC6)ncnn4c3)C(=O)C21 (single isomer, unassigned) [Example 67, 3-((4-(6-chloro-1-(pyrrolidin-3-yl)-1,2,3,4-tetrahydroquinolin-8-yl)pyrrolo[2,1-f][1,2,4]triazin-6-yl)methyl)-6,6-dimethyl-3-azabicyclo[3.1.0]hexane-2,4-dione hydrochloride] | > 6.30
Cc1cc(Cl)cc(-c2ncnn3cc(Cn4c(=O)c(F)cn(C)c4=O)cc23)c1CC1CNC[C@H](C)O1 (single isomer, unassigned) [Example 108, hydrochloride] | > 6.30
Cc1cc(Cl)cc(-c2ncnn3cc(Cn4c(=O)ccn(C(C)C)c4=O)cc23)c1CC1CN[C@@H](C)CO1 (single isomer, unassigned) [Example 113, hydrochloride] | > 6.30

The compounds below were run against T1, full-length USP7 (assay: Enzymatic assay to determine % inhibition of USP7 activity at 1 μM test compound (Ubiquitin-Rhodamine 110 cleavage)). Conditions: 1 μM of the test compound; given where IC50 has not been determined yet; mean of two repetitions.
Assay type: biochemical
Procedure, shortened: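 Full-length USP7 (0.5-1.0 nM) was preincubated 15 min with DTT in HEPES pH 7.5 buffer, and compound was added at a final 1 μM. Ubiquitin-Rhodamine 110 (0.5 μM final) was then cleaved for 30-60 min at 25° C., read at 485/535 nm. % inhibition is the mean of two repetitions.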

inhibition at 1 µM | SMILES
50 to 70% | Cn1ccc(=O)n(Cc2cc3c(-c4cc(Cl)cc(F)c4CC4CNCCO4)ncnn3c2)c1=O (stereo not shown) [Example 116, 3-((4-(5-chloro-3-fluoro-2-(morpholin-2-ylmethyl)phenyl)pyrrolo[2,1-f][1,2,4]triazin-6-yl)methyl)-1-methylpyrimidine-2,4(1H,3H)-dione hydrochloride]
20 to 49% | Cc1cc(Cl)cc(-c2ncnn3cc(Cn4c(=O)ccn(C)c4=O)cc23)c1CC1CNC[C@H](C)O1 (stereo partly drawn) [Example 122, 3-((4-(5-chloro-3-methyl-2-(((6S)-6-methylmorpholin-2-yl)methyl)phenyl)pyrrolo[2,1-f][1,2,4]triazin-6-yl)methyl)-1-methylpyrimidine-2,4(1H,3H)-dione dihydrochloride]
< 20% | O=c1cc[nH]c(=O)n1Cc1cc2c(-c3cc(Cl)cc4ccn(CC5(F)CCNCC5)c34)nc(Cl)nn2c1 [Example 123, 3-((2-chloro-4-(5-chloro-1-((4-fluoropiperidin-4-yl)methyl)-1H-indol-7-yl)pyrrolo[2,1-f][1,2,4]triazin-6-yl)methyl)pyrimidine-2,4(1H,3H)-dione hydrochloride]
> 70% | CC(C)n1ccc(=O)n(Cc2cc3c(-c4cc(Cl)cc5ccn(CC6(F)CCNCC6)c45)ncnn3c2)c1=O [Example 127, 3-((4-(5-chloro-1-((4-fluoropiperidin-4-yl)methyl)-1H-indol-7-yl)pyrrolo[2,1-f][1,2,4]triazin-6-yl)methyl)-1-isopropylpyrimidine-2,4(1H,3H)-dione hydrochloride]

Further lines, the compound ahead of its results:

SMILES | inhibition at 1 µM
Cc1cc(Cl)cc(-c2ncnn3cc(CN4C(=O)C5C(C4=O)C5(C)C)cc23)c1CN1CCC2(CC1)CNC2 (stereo not shown) [Example 102, 3-((4-(2-((2,7-diazaspiro[3.5]nonan-7-yl)methyl)-5-chloro-3-methylphenyl)pyrrolo[2,1-f][1,2,4]triazin-6-yl)methyl)-6,6-dimethyl-3-azabicyclo[3.1.0]hexane-2,4-dione hydrochloride] | 20 to 49%
CN[C@H]1CCCN(c2ccc(Cl)cc2-c2ncnn3cc(CN4C(=O)C5C(C4=O)C5(C)C)cc23)C1 (stereo partly drawn) [Example 112, 3-((4-(5-chloro-2-((S)-3-(methylamino)piperidin-1-yl)phenyl)pyrrolo[2,1-f][1,2,4]triazin-6-yl)methyl)-6,6-dimethyl-3-azabicyclo[3.1.0]hexane-2,4-dione hydrochloride] | 50 to 70%
Cc1cc(F)cc(-c2ncnn3cc(Cn4c(=O)ccn(C)c4=O)cc23)c1CC1CNC[C@H](C)O1 (stereo partly drawn) [Example 128, 3-((4-(5-fluoro-3-methyl-2-(((6S)-6-methylmorpholin-2-yl)methyl)phenyl)pyrrolo[2,1-f][1,2,4]triazin-6-yl)methyl)-1-methylpyrimidine-2,4(1H,3H)-dione hydrochloride] | 20 to 49%
Cc1nc(C(F)(F)F)cc(-c2ncnn3cc(Cn4c(=O)ccn(C)c4=O)cc23)c1OC1CCCNC1 (stereo not shown) [Example 129, 1-methyl-3-((4-(2-methyl-3-(piperidin-3-yloxy)-6-(trifluoromethyl)pyridin-4-yl)pyrrolo[2,1-f][1,2,4]triazin-6-yl)methyl)pyrimidine-2,4(1H,3H)-dione hydrochloride] | < 20%
